Laboratory results: publication PMC7604895, “Identification of a Novel Substrate-Derived Spermine Oxidase Inhibitor” (Acta Naturae, 2020)
One block for each compound: values may come before it.

Experiments:
Format in all cases: biochemical
spermine oxidase (SMOX) [1] = molecular target: T1, spermine oxidase (SMOX) (Homo sapiens, UniProt Q9NWM0); assay: luminol-HRP chemiluminescent H2O2 assay with purified SMOX, […] Spm substrate, […] min preincubation
T1 construct: human SMOX expressed from pET15b in E. coli BL21(DE3), polyhistidine tag removed by thrombin
T1 sequence (Q9NWM0 whole entry): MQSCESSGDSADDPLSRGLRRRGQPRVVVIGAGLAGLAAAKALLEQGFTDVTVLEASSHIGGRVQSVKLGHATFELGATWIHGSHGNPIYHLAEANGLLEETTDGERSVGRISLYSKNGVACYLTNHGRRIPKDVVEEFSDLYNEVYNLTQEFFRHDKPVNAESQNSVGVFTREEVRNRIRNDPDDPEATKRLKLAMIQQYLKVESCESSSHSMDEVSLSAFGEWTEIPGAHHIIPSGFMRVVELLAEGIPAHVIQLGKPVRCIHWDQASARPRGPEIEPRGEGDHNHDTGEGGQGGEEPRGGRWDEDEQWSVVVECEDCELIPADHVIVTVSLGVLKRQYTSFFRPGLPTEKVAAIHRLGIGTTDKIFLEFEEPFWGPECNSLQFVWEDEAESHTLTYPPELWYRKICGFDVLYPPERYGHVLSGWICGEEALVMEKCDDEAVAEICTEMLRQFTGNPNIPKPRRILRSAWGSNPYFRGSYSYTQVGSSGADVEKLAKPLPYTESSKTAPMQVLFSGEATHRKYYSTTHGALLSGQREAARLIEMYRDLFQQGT

spermine oxidase (SMOX) [2] = molecular target: T1, spermine oxidase (SMOX); assay: luminol-HRP chemiluminescent H2O2 assay with purified SMOX, […] Spm substrate (positive control inhibitor)
spermine oxidase (SMOX) [3] = molecular target: T1, spermine oxidase (SMOX); assay: substrate turnover by purified SMOX, luminol-HRP chemiluminescent H2O2 detection

- IC50 (spermine oxidase (SMOX) [1]): 169 µM
SMILES: C=C(CN)CNCCCCNCC(=C)CN [2,11-Met2-Spm, 1,12-diamino-2,11-bis(methylidene)-4,9-diazadodecane]

- IC50 (spermine oxidase (SMOX) [2]): 100 µM
SMILES: C=C=CCNCCCCNCC=C=C [MDL72527, N1,N4-(bis(2,3-butadienyl)-1,4-butanediamine)]

SMILES: NCCCNCCCCNCCCN [Spm, spermine]
- substrate turnover by purified SMOX, luminol-HRP chemiluminescent H2O2 detection (spermine oxidase (SMOX) [3]): SMOX activity was measured using a chemiluminescent enzyme-based assay detecting the formation of H2O2 in the presence of Spm
